Data reported in publication PMC10882719 (Frontiers in Neuroscience, 2024).
Read-outs that look alike come from different tables or passages of the source.

Columns and labels:
Format in all cases: cell-based
[1] = biological target: T1, 168 GPCRs (Homo sapiens, UniProt O00574)
T1 construct: host or cells: PathHunter cell lines

[2] = biological target: T2, 168 GPCRs (Homo sapiens, UniProt P18825); settings: ADRA2C
T2 construct: host or cells: PathHunter cell lines
T2 sequence (P18825 1-462): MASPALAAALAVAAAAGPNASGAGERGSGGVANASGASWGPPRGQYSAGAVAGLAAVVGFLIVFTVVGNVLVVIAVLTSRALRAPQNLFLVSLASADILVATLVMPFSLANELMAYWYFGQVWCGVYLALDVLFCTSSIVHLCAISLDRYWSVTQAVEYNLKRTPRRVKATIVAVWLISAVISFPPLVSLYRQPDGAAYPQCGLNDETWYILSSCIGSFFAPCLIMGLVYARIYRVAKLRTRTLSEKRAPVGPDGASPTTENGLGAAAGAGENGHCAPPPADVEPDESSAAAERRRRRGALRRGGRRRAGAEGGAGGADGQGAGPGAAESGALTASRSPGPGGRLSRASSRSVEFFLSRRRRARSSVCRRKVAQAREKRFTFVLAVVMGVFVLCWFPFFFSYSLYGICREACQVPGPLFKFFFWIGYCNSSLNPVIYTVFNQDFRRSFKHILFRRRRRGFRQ

[3] = biological target: T3, 168 GPCRs (Homo sapiens, UniProt P32238); settings: CCKAR
T3 construct: host or cells: PathHunter cell lines
T3 sequence (P32238 1-428): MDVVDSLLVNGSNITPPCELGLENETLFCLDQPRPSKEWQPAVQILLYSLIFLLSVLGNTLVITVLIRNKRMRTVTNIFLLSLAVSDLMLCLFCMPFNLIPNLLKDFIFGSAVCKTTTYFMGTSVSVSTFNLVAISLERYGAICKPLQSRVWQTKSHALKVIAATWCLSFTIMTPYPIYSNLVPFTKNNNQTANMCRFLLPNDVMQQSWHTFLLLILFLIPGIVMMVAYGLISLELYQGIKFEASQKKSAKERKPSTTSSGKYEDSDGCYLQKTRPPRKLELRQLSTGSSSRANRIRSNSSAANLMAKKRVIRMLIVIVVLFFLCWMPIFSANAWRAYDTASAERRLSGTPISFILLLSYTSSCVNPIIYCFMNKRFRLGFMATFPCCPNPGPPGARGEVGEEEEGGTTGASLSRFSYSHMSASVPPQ

[4] = biological target: T4, 168 GPCRs (Homo sapiens, UniProt P37288); settings: AVPR1a
T4 construct: host or cells: PathHunter cell lines

[5] = biological target: T5, 168 GPCRs (Homo sapiens, UniProt P41968); settings: MC3R
T5 construct: host or cells: PathHunter cell lines

[6] = biological target: T6, 168 GPCRs (Homo sapiens, UniProt P47901); settings: AVPR1B
T6 construct: host or cells: PathHunter cell lines
T6 sequence (P47901 1-424): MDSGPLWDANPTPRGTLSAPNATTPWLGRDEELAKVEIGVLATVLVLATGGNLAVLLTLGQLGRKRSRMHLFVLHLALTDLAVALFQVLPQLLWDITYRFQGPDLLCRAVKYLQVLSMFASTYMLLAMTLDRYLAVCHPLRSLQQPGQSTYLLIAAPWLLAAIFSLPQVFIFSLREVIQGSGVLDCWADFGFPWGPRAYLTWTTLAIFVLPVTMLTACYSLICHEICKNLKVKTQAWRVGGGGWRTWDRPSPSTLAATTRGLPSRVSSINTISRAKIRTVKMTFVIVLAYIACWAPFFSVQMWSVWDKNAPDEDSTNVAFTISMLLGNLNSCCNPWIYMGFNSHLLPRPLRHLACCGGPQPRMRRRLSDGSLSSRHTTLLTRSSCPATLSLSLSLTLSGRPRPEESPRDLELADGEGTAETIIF

[7] = biological target: T7, 168 GPCRs (Homo sapiens, UniProt P48039); settings: MTNR1A
T7 construct: host or cells: PathHunter cell lines

[8] = biological target: T8, 168 GPCRs (Homo sapiens, UniProt P51677)
T8 construct: host or cells: PathHunter cell lines
T8 sequence (P51677 1-355): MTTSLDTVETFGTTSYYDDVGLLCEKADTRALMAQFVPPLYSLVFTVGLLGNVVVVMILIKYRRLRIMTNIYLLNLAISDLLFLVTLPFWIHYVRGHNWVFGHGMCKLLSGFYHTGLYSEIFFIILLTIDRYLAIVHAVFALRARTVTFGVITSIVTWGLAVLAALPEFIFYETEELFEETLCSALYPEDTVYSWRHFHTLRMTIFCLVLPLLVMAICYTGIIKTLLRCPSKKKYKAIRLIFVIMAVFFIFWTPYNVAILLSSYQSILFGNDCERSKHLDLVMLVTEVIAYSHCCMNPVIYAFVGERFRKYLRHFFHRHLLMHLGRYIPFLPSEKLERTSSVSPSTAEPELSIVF

T5 sequence (P41968 whole entry): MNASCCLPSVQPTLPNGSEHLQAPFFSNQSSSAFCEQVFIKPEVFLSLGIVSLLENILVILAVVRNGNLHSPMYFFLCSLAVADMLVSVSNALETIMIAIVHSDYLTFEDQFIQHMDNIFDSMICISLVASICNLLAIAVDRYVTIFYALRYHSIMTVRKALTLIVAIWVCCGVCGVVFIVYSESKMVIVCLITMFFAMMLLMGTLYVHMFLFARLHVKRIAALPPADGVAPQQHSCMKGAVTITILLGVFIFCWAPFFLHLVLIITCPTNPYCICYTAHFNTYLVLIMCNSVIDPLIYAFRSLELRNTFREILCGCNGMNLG
T4 sequence (P37288 whole entry): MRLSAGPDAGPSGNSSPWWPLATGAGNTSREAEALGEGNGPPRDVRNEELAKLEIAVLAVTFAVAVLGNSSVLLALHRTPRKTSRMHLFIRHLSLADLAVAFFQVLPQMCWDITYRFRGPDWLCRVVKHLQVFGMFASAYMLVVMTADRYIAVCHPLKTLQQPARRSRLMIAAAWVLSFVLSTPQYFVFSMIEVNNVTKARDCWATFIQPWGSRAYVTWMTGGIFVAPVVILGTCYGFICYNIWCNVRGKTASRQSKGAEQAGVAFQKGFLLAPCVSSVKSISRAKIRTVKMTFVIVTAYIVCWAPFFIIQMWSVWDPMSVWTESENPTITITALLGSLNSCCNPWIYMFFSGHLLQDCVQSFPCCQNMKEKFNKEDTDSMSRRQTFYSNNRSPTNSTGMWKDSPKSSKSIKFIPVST
T1 sequence (O00574 whole entry): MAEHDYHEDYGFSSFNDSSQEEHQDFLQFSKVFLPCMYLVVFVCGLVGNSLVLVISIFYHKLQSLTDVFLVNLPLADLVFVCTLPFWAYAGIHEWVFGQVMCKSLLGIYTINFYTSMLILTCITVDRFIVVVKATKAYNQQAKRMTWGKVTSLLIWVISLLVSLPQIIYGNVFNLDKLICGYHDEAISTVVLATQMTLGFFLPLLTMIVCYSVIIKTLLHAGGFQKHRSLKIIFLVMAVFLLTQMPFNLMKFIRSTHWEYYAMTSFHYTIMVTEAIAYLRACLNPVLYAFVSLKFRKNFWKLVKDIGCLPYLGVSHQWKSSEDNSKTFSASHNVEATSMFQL
T7 sequence (P48039 whole entry): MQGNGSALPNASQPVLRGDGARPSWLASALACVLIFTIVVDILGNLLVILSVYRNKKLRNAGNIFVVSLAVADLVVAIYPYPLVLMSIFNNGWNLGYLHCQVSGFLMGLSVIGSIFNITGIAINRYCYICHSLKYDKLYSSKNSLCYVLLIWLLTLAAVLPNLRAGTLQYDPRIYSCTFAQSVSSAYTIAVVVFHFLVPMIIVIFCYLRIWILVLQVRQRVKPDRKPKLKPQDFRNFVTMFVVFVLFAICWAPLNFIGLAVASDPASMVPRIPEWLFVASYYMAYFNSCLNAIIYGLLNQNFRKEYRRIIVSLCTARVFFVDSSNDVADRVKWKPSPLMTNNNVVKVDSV

SMILES | % Agonist Activity ([1]; CXCR6, 1 uM) | % Antagonist Activity ([1]; CXCR6, 1 uM) | % Agonist Activity ([1]; CXCR6, 10 uM) | % Antagonist Activity ([1]; CXCR6, 10 uM) | % Agonist Activity ([2]; 1 uM) | % Antagonist Activity ([2]; 1 uM) | % Agonist Activity ([2]; 10 uM) | % Antagonist Activity ([2]; 10 uM) | % Agonist Activity ([3]; 1 uM) | % Antagonist Activity ([3]; 1 uM) | % Agonist Activity ([3]; 10 uM) | % Antagonist Activity ([3]; 10 uM) | % Agonist Activity ([4]; 1 uM) | % Antagonist Activity ([4]; 1 uM) | % Agonist Activity ([4]; 10 uM) | % Antagonist Activity ([4]; 10 uM) | % Agonist Activity ([5]; 1 uM) | % Antagonist Activity ([5]; 1 uM) | % Agonist Activity ([5]; 10 uM) | % Antagonist Activity ([5]; 10 uM) | further results
CNC(C)C(=O)c1ccc2c(c1)OCO2 (stereo not shown) [methylone] | 0.3% | 27.2% | 0.3% | 12.6% | -2.5% | -4.3% | 0.1% | 17.6% | 0.1% | -4.3% | -0.3% | -3.3% | -0.6% | -3% | -0.5% | 2.8% | -3.2% | -5.7% | -1.8% | 0.3% | % Agonist Activity ([6]; 1 uM): -1.2%; % Antagonist Activity ([6]; 1 uM): 9.8%; % Agonist Activity ([6]; 10 uM): -1.1%; % Antagonist Activity ([6]; 10 uM): 3.5%; % Agonist Activity ([7]; 1 uM): -12.3%; % Antagonist Activity ([7]; 1 uM): 30.8%; % Agonist Activity ([7]; 10 uM): -11.7%; % Antagonist Activity ([7]; 10 uM): 7.8%; % Agonist Activity ([8]; CCR3, 1 uM): -6.7%; % Antagonist Activity ([8]; CCR3, 1 uM): -11.8%; % Agonist Activity ([8]; CCR3, 10 uM): -7.6%; % Antagonist Activity ([8]; CCR3, 10 uM): -4%
CNC(C)Cc1ccc2c(c1)OCO2 (stereo not shown) [MDMA, 3,4-Methylenedioxy methamphetamine, reference compound] | 14.7% | 20.9% | 3.8% | 5.2% | 3.9% | 16.4% | 6.9% | 38.1% | -0.1% | -2.2% | 0.4% | 0.7% | -0.2% | -3.6% | -0.4% | 4.5% | 0.7% | 5.9% | 1.3% | 1.9% | % Agonist Activity ([6]; 1 uM): -1%; % Antagonist Activity ([6]; 1 uM): 8.1%; % Agonist Activity ([6]; 10 uM): -1.8%; % Antagonist Activity ([6]; 10 uM): 0.8%; % Agonist Activity ([7]; 1 uM): -9.2%; % Antagonist Activity ([7]; 1 uM): 18.4%; % Agonist Activity ([7]; 10 uM): -9.6%; % Antagonist Activity ([7]; 10 uM): 17.7%; % Agonist Activity ([8]; CCR3, 1 uM): -1.5%; % Antagonist Activity ([8]; CCR3, 1 uM): 1.5%; % Agonist Activity ([8]; CCR3, 10 uM): -1.3%; % Antagonist Activity ([8]; CCR3, 10 uM): 9.6%
